Results from patent publication US20260139017A1, “COMPOSITIONS AND METHODS USING REELIN IN ALZHEIMER'S DISEASE” (The General Hospital Corporation, priority 2022, published 2026).
“Also recorded” adds a separate entry of the source.

Tests used:
[1] = Surface plasmon resonance (SPR) binding of CTR-RELN peptides to heparin-coated chip; conditions: SPR kinetic constants
Description: Surface plasmon resonance assay (SPR) was used for performing binding kinetics using a Biacore 3000 Instrument (GE Healthcare) at 25° C. following previously published protocols (7 24) as fee-for-service by Precision Antibody (Maryland, USA). Biotin-labeled heparin (B9806, Sigma Aldrich) was covalently linked to streptavidin-coated chip and unoccupied sites were blocked with biocytin. Antigen was flowed over the chip using a range of single analyte concentrations prepared in DPBS buffer and using a flow rate of 30 μL/min. Binding of antigen to the ligand was monitored in real time to obtain on (ka) and off (kd) rates. The equilibrium constant (KD) was calculated from the observed ka and kd. Accuracy of the SPR analysis was determined via Chi square (χ2) analysis as described in the statistical analysis section. We included in the analyses the WT and H3447R peptides and peptides with the hypothetical H3447D change ([…])(SEQ ID NO:57) and the H3447K change ([…])(SEQ ID NO:58), also produced and purified by Innovagen (Sweden).
Surface plasmon resonance assay (SPR) was used for performing binding kinetics using a Biacore 3000 Instrument (GE Healthcare) at 25° C. following previously published protocols 34 24 fee-for-service by Precision Antibody (Maryland, USA). Heparin was covalently linked to streptavidin coated chip at 13 response units (RU) concentration and unoccupied sites were blocked with biocytin. Antigen was flowed over the chip using a range of single analyte concentrations prepared in DPBS buffer and using a flow rate of 30 μL/min. Binding of antigen to the ligand was monitored in real time to obtain on (ka) and off (kd) rates. The equilibrium constant (KD) was calculated from the observed ka and kd. Accuracy of the SPR analysis was determined via Chi square (2) analysis as described in the statistical analysis section.

[2] = Heparin HPLC, peak retention time in KCl elution; assay type: binding; conditions: isocratic 1M KCl elution, long and short peptides
Description: […] 50 μl of 0.3 μg/μL uncleaved or cleaved WT Reelin peptide was used at 0.3 ml/min in 0.15MKCl, 10 mM PBS. 0-13.5 min: 0.15M KCl to load sample, 13.5-14.5 min: ramp to 0.5M KCl, 14.5-24.5 min: 0.5-1M KCl gradient (ramp), 24.5-45 min: 1M KCl (isocratic elution), 45-55 min: 1M KCl at 0.6 ml/min (wash), 55.0-56.0 min: ramp to 0.15M KCl at 0.3 ml/min, 56.0-59.0 min: 0.15M KCl (reset column). Fluorescence Intensities were measured at an excitation wavelength of 260 nm and emission wavelength of 290 nm, based on fluorescence properties of aromatic amino acids. To assess fluorescence properties of peptides, 15 ul of ˜0.6 ug/mL of peptide was diluted in 500 μL of 0.15MKCl, 10 mM PBS, and peak excitation and emission of peptides was calculated from the 2D graphical data.
The column chromatography method was adapted from previous research from the laboratory (2). Based on the column chromatography data, the initial protocol used a NaCl gradient from 0-1 M and a 5M salt wash to reset the HPLC column. However, the high salt gradient was corrosive to the HPLC machine parts. Therefore, KCl was considered because the […]. A lower molar concentration of a buffer with KCl could be used to disrupt heparin—Reelin CTR interactions compared to NaCl to help keep the HPLC pumps free of residual salts and potential corrosion. Since a lower concentration of salt was used, the amount of time needed at an […] hold of 1M KCl was extended until the peptide signal could not be detected before the column was equilibrated for the next sample.

Aβ42 = biological target: T1, Aβ42 (Homo sapiens, UniProt P05067); assay: Thioflavin T (ThT) Aβ aggregation assay; assay type: biochemical; conditions: Aβ42 55 μM, 10 μM peptide; vs Aβ alone
T1 construct: SensoLyte ThT O-Amyloid (1-42) Aggregation kit
Description: Therefore, the ThT assay can be used to quantify AB aggregation using previously developed methods (40).
We incubated CTR-RELN with Aβ and monitored aggregation using a ThioflavinT fluorescence assay normalized to the maximum ThT emission of Aβ only. We also assayed Aβ in the presence of morin, a known inhibitor (41), as a […]. Long and short WT and H3447R RELN CTR peptides were included to better understand the potential role of the H3447R mutation in amyloid pathology (FIGS. 14 and 15. Negative controls included long and short RELN CTR peptides with neutrally charged AAs (histidines) in place of basic AAs in the alpha- and beta-GAG binding sites.
A Thioflavin T (ThT) assay was also performed using synthetic Reelin peptides to assess the differential effects of these proteins on Aβ42 aggregation in vitro using Thioflavin T (SensoLyte ThT O-Amyloid (1-42) Aggregation kit, catalog no. ΔS-72214). Aβ42 was added to a final concentration of 55 μM in solutions of 10 μM of Reelin peptide variants in a transparent, no-binding 96-well plate. Samples were then mixed with 2 mM Thioflavin T dye and fluorescence was read at excitation wavelength/emission wavelength (Ex/Em)=440/484 nm at intermittent time intervals over 2 h. The plate was kept at 37° C. with 15 s shaking between reads. […] In general, it appears that the RELN Cterm domain is highly unstructured. […] If the mini-RELN includes the C-term domain only without a receptor binding domain then the protection will not involve signaling, but will still involve direct interactions with tau. If the mini-RELN includes the C-term domain and the receptor binding domain, it will have at least two protective mechanisms, namely RELN signaling and direct interactions with tau.

NRP1 = biological target: T2, NRP1 (Homo sapiens, UniProt O14786); assay: Bio-layer interferometry (BLI) of CTR-RELN-NRP-1 interactions; assay type: binding
T2 construct: purchased R&D 3870-N1-025
T2 sequence (O14786 22-644 isoform O14786-2 limits assumed): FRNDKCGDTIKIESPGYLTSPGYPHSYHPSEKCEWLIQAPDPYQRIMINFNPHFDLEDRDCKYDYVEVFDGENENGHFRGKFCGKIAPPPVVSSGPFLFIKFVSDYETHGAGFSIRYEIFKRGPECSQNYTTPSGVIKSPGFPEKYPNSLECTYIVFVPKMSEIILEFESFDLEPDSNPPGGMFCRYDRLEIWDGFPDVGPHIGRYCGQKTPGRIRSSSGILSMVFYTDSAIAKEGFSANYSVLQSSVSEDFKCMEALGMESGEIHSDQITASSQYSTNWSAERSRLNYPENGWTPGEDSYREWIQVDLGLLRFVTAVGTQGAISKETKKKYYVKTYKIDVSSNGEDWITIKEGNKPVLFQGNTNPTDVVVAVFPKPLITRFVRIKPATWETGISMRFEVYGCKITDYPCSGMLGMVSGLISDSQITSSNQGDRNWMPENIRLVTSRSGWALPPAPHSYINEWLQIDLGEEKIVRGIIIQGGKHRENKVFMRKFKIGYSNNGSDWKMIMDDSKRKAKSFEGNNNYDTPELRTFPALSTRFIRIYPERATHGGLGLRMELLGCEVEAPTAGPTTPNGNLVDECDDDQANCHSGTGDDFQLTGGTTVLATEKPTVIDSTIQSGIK
Description: (§1) Bio-layer interferometry (BLI) was additionally used to assess NRP1-protein kinetics at 30° C. and 1000 rpm agitation. 1 mg/mL NRP1 (R&D 3870-N1-025) was biotinylated at a 1:2 molar ratio, desalted, and immobilized on the SA biosensor tip (Pall ForteBio) surface. This was followed by 1) 180 seconds baseline buffer diluent, 2) loading of the ligand (NRP1), 3) 180 seconds baseline buffer diluent, 4) 240 seconds association (analyte), and 5) 300 seconds disassociation in assay buffer. Assay buffer: SD Buffer (pH7.4 PBS, 0.05% tween20, 0.01% BSA).
The experimental data were fit with the 1:1 binding model and analyzed with global fitting using Octet Data Analysis software to calculate KD.
as §1, with “was” for “was additionally”, “agitation using previously published methods.” for “agitation.”

APOER2 = biological target: T3, APOER2 (Homo sapiens, UniProt Q14114); assay: ELISA cell-free binding of RELN variants to ApoEr2
T3 construct: purchased OnGene (so in the source)
T3 sequence (Q14114 33-963): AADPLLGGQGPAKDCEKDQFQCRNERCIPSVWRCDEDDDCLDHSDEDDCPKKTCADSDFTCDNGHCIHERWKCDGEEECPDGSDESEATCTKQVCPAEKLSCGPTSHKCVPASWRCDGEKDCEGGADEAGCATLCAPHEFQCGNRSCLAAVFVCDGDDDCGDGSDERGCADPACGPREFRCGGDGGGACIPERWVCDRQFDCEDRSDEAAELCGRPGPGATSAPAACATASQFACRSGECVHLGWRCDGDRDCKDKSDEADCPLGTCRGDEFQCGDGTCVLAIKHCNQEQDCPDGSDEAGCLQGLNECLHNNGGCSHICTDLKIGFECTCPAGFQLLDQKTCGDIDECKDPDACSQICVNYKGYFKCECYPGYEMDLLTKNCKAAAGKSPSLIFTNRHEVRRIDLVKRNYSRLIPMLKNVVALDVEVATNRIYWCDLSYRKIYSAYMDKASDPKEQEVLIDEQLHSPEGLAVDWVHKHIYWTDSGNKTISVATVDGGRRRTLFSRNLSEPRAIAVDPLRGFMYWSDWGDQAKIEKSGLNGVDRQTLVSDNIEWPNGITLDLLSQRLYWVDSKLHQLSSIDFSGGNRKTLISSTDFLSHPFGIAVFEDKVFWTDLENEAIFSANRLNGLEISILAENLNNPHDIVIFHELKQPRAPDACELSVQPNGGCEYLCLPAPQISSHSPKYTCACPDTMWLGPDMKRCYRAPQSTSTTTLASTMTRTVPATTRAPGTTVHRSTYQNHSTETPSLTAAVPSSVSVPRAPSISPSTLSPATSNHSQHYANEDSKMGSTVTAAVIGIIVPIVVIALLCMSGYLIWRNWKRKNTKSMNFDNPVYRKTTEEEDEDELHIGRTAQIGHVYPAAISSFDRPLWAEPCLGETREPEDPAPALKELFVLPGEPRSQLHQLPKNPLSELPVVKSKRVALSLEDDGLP
Description: (§2) Enzyme-linked immunosorbent assay (ELISA) was used to quantify changes in binding of RELN variants (media-derived full-length or CTR-RELN) to either VLDLr or ApoEr2 following an optimized version of a previously published protocol (6). Briefly, ELISA strips (DY008, R&D Systems) were coated with one ng/μL (100 μL/well) of VLDLr (8444-VL, R&D) or ApoEr2 (TP320903, OnGene) receptors diluted in 25 mM Tris HCl, 140 mM NaCl, […], two mM CaCl2), pH 7.4 (TBS-C buffer). After 18 h at four ° C. incubation, plates were blocked one h with three % BSA (22070008-6, Bioworld), 0.05% Tween-20 (Sigma Aldrich) TBS-C buffer. We assessed binding via incubation with 100 μL/well of serial dilutions of recombinant RELN protein (Ser1221-Gln2666, 8546-MR-050, R&D) or RELN variants in TBS-C buffer for one hour at room temperature. For detection, we used goat anti-mouse RELN primary antibody (LS-C793521-100, LS-Bio, 1:2,000, 100 μL/well) as primary antibody for one h at R.T. and (1:10,000; 100 μL/well, donkey anti-goat IgG H&L, HRP, ab6885, Abcam) as secondary antibody for 30 min. at R.T. Between each of the previous steps, plates were washed four times with TBS-C buffer (200 μL/well). Plates were washed three times prior to initiating the colorimetric reaction (DY008, R&D Systems). Stop solution (50 μL/well, DY008, R&D Systems) was added upon five min. incubation and the absorbance of the samples was measured at 450 nm using the Synergy 2 microplate reader (BioTek Instruments). Processing and analysis of the data was done using Gen5 1.11 software and GraphPad Prism, respectively.

VLDLr = biological target: T4, VLDLr (Homo sapiens, UniProt P98155); assay: ELISA cell-free binding of RELN variants to VLDLr
T4 construct: purchased R&D 8444-VL
Description: as §2

T1 sequence (P05067 672-713 limits assumed): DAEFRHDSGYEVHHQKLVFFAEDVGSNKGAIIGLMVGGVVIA

Substance	heparin affinity/interaction relative to WT, in words [1]	peak retention time on heparin HPLC [2]	Aβ aggregation (ThT fluorescence) (Aβ42)	also measured
RKQNYMMNFSRQHGLRKFYNRRRRSLRRYP [H3447K long]	minimal effects	increased later peak retention times	similarly decrease aggregation	–
Vascular endothelial growth factor [VEGF, reference compound]	–	–	–	ka (NRP1; immobilized biotinylated NRP1): 272000 M⁻¹ s⁻¹; kd (NRP1; immobilized biotinylated NRP1): 0.0015 s⁻¹; Kd (NRP1; immobilized biotinylated NRP1, 30° C., 1:1 model): 5.53 nM
RELN WT: full-length murine recombinant RELN, wild type	–	–	–	binding to APOER2 (APOER2): did not differ; binding to VLDLr (VLDLr): did not differ
RKQNYMMNFSRQHGLRDFYNRRRRSLRRYP [H3447D long]	reduced heparin interactions	significantly less interaction; also recorded: earlier peak retention time	similarly decrease aggregation	–
